Columns and labels:
SST5 = target: T1, SST5 (Homo sapiens, UniProt P35346); experiment: GPCR radioligand binding (RLB) assay, somatostatin SST5, [125I]SST-14; settings: 10 micromolar compound; recombinant human receptor membranes (HEK 293)
T1 construct: purchased Perkin Elmer BioSignal; host or cells: HEK 293
In short: (§1)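 Membranes from HEK 293 cells expressing the recombinant human receptor were equilibrated with [125I]SST-14 (SST5) or [125I]NDP-αMSH (MC4), then compound added for an optimized incubation. Bound ligand separated by filtration on PEI-coated glass fiber and counted by liquid scintillation.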

MC4 = target: T2, MC4 (Homo sapiens, UniProt P32245); experiment: GPCR radioligand binding (RLB) assay, melanocortin MC4, [125I]NDP-αMSH; settings: 10 micromolar compound; recombinant human receptor membranes (HEK 293)
T2 construct: purchased Perkin Elmer BioSignal; host or cells: HEK 293
In short: as §1

T1 sequence (P35346 whole entry): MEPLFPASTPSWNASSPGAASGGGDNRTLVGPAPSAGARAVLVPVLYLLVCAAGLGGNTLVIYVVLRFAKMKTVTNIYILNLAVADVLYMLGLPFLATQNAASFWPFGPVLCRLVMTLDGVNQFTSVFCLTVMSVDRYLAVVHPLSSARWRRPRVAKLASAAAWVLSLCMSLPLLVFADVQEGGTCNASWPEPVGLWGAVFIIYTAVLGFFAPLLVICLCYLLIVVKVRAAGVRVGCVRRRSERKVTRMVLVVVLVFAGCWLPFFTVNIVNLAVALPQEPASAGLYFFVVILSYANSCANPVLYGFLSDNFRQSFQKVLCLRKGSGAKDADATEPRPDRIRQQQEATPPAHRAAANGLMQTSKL
T2 sequence (P32245 whole entry): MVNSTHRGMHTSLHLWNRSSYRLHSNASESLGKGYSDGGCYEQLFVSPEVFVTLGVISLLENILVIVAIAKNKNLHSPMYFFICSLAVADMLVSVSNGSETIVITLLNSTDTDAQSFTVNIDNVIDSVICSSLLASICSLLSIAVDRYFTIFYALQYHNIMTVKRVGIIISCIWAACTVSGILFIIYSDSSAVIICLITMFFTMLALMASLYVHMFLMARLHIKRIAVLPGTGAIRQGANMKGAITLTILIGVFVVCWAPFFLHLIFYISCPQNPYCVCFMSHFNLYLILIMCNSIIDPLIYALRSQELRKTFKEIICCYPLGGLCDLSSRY

| Structure (SMILES) | SST5 inhibition at 10 micromolar (SST5) | MC4 inhibition at 10 micromolar (MC4) |
| --- | --- | --- |
| COC[C@H]1OC(OCc2ccc3ccccc3c2)[C@H](NC(=O)CCCN)[C@@H](OCc2ccc3ccccc3c2)[C@@H]1O (stereo partly drawn) [Compound 39] | + (Indicates inhibition greater than . . . 50%) | + (Indicates inhibition greater than . . . 50%) |
| COC[C@H]1OC(OCc2ccc3ccccc3c2)[C@H](NC(=O)CCCNC(=N)N)[C@@H](OCc2ccc3ccccc3c2)[C@@H]1O (stereo partly drawn) [Compound 40] | + (Indicates inhibition greater than . . . 50%) | + (Indicates inhibition greater than . . . 50%) |
| COC[C@H]1OC(OCc2ccc3ccccc3c2)[C@H](NC(=O)CCCNC(=N)N)[C@@H](OCc2ccc(Cl)cc2)[C@@H]1O (stereo partly drawn) [Compound 43] | + (Indicates inhibition greater than . . . 50%) | + (Indicates inhibition greater than . . . 50%) |
| COC[C@H]1OC(OCc2ccc(Cl)cc2)[C@H](NC(=O)CCCNC(=N)N)[C@@H](OCc2ccc(-c3ccccc3)cc2)[C@@H]1O (stereo partly drawn) [Compound 45] | + (Indicates inhibition greater than . . . 50%) | + (Indicates inhibition greater than . . . 50%) |
| COC[C@H]1OC(OCc2ccc(Cl)cc2)[C@H](NC(=O)CCCN)[C@@H](OCc2ccc3ccccc3c2)[C@@H]1O (stereo partly drawn) [Compound 46] | + (Indicates inhibition greater than . . . 50%) | + (Indicates inhibition greater than . . . 50%) |
| COC[C@H]1OC(OCCc2ccccc2)[C@H](NC(=O)CCCNC(=N)N)[C@@H](OCc2ccc(-c3ccccc3)cc2)[C@@H]1O (stereo partly drawn) [Compound 49] | + (Indicates inhibition greater than . . . 50%) | + (Indicates inhibition greater than . . . 50%) |
| COC[C@H]1OC(OCc2ccc(-c3ccccc3)cc2)[C@H](NC(=O)CCCN)[C@@H](OCc2ccc(-c3ccccc3)cc2)[C@@H]1O (stereo partly drawn) [Compound 53] | + (Indicates inhibition greater than . . . 50%) | + (Indicates inhibition greater than . . . 50%) |
| CO[C@H]1[C@H](O)[C@@H](COCc2ccc(-c3ccccc3)cc2)OC(OCc2ccc(-c3ccccc3)cc2)[C@@H]1NC(=O)CNC(=N)N (stereo partly drawn) [Compound 56] | + (Indicates inhibition greater than . . . 50%) | + (Indicates inhibition greater than . . . 50%) |
| CO[C@H]1[C@H](O)[C@@H](COCc2ccc(-c3ccccc3)cc2)OC(OCc2ccc(-c3ccccc3)cc2)[C@@H]1NC(=O)CCNC(=N)N (stereo partly drawn) [Compound 57] | + (Indicates inhibition greater than . . . 50%) | + (Indicates inhibition greater than . . . 50%) |
| COC1C(O)C(COCc2ccc3ccccc3c2)OC(OCc2ccc(-c3ccccc3)cc2)C1NC(=O)CCCN (stereo not drawn) [Compound 61] | + (Indicates inhibition greater than . . . 50%) | + (Indicates inhibition greater than . . . 50%) |
| COC1C(O)C(COCc2ccc(-c3ccccc3)cc2)OC(OCc2ccc3ccccc3c2)C1NC(=O)CCCN (stereo not drawn) [Compound 69] | + (Indicates inhibition greater than . . . 50%) | + (Indicates inhibition greater than . . . 50%) |
| COC1C(O)C(COCc2ccc3ccccc3c2)OC(OCc2ccc3ccccc3c2)C1NC(=O)CCCN (stereo not drawn) [Compound 73] | + (Indicates inhibition greater than . . . 50%) | + (Indicates inhibition greater than . . . 50%) |
| COC1C(O)C(COCc2ccc(Cl)cc2)OC(OCc2ccc3ccccc3c2)C1NC(=O)CCCN (stereo not drawn) [Compound 77] | + (Indicates inhibition greater than . . . 50%) | + (Indicates inhibition greater than . . . 50%) |
| COC1C(O)C(COCc2ccc3ccccc3c2)OC(OCc2ccccc2)C1NC(=O)CNC(=N)N (stereo not drawn) [Compound 80] | + (Indicates inhibition greater than . . . 50%) | + (Indicates inhibition greater than . . . 50%) |
| COC1C(O)C(COCc2ccc(-c3ccccc3)cc2)OC(OCc2ccc(Cl)cc2)C1NC(=O)CCNC(=N)N (stereo not drawn) [Compound 84] | + (Indicates inhibition greater than . . . 50%) | + (Indicates inhibition greater than . . . 50%) |
| COC1C(O)C(COCc2ccc(-c3ccccc3)cc2)OC(OCc2ccc(Cl)cc2)C1NC(=O)CCCNC(=N)N (stereo not drawn) [Compound 86] | + (Indicates inhibition greater than . . . 50%) | + (Indicates inhibition greater than . . . 50%) |
| COC1C(O)C(COCc2ccc3ccccc3c2)OC(OCc2ccc(Cl)cc2)C1NC(=O)CNC(=N)N (stereo not drawn) [Compound 87] | + (Indicates inhibition greater than . . . 50%) | + (Indicates inhibition greater than . . . 50%) |

| Structure (SMILES) | SST5 inhibition at 10 micromolar (SST5) | MC4 inhibition at 10 micromolar (MC4) |
| --- | --- | --- |
| COC1C(O)C(COCc2ccc3ccccc3c2)OC(OCc2ccc(Cl)cc2)C1NC(=O)CCNC(=N)N (stereo not drawn) [Compound 88] | + (Indicates inhibition greater than . . . 50%) | + (Indicates inhibition greater than . . . 50%) |
| COC1C(O)C(COCc2ccc3ccccc3c2)OC(OCc2ccc(Cl)cc2)C1NC(=O)CCCN (stereo not drawn) [Compound 89] | + (Indicates inhibition greater than . . . 50%) | + (Indicates inhibition greater than . . . 50%) |
| COC1C(O)C(COCc2ccc3ccccc3c2)OC(OCc2ccc(Cl)cc2)C1NC(=O)CCCNC(=N)N (stereo not drawn) [Compound 90] | + (Indicates inhibition greater than . . . 50%) | + (Indicates inhibition greater than . . . 50%) |
| CO[C@H]1[C@H](O)[C@@H](COCc2ccc(Cl)cc2)OC(OCc2ccc(Cl)cc2)[C@@H]1NC(=O)CCCN (stereo partly drawn) [Compound 94] | + (Indicates inhibition greater than . . . 50%) | + (Indicates inhibition greater than . . . 50%) |
| CO[C@H]1[C@H](O)[C@@H](COCc2ccc(-c3ccccc3)cc2)OC(OCCc2ccccc2)[C@@H]1NC(=O)CCCN (stereo partly drawn) [Compound 98] | + (Indicates inhibition greater than . . . 50%) | + (Indicates inhibition greater than . . . 50%) |
| CO[C@H]1[C@H](O)[C@@H](COCc2ccc3ccccc3c2)OC(OCCc2ccccc2)[C@@H]1NC(=O)CCCN (stereo partly drawn) [Compound 102] | + (Indicates inhibition greater than . . . 50%) | + (Indicates inhibition greater than . . . 50%) |
| CO[C@H]1[C@H](O)[C@@H](COCc2ccc3ccccc3c2)OC(OCCc2ccccc2)[C@@H]1NC(=O)CCCNC(=N)N (stereo partly drawn) [Compound 103] | + (Indicates inhibition greater than . . . 50%) | + (Indicates inhibition greater than . . . 50%) |
| CO[C@H]1[C@H](O)[C@@H](COCc2ccc(Cl)cc2)OC(OCCc2ccccc2)[C@@H]1NC(=O)CCCN (stereo partly drawn) [Compound 106] | + (Indicates inhibition greater than . . . 50%) | + (Indicates inhibition greater than . . . 50%) |
| CSC1OC(COCc2ccccc2)C(O)C(OCc2ccccc2)C1NC(=O)CNC(=N)N (stereo not drawn) [Compound 120] | + (Indicates inhibition greater than . . . 50%) | + (Indicates inhibition greater than . . . 50%) |
| CSC1OC(COCc2ccccc2)C(O)C(OCc2ccccc2)C1NC(=O)CCN (stereo not drawn) [Compound 121] | + (Indicates inhibition greater than . . . 50%) | + (Indicates inhibition greater than . . . 50%) |
| CSC1OC(COCc2ccccc2)C(O)C(OCc2ccccc2)C1NC(=O)CCNC(=N)N (stereo not drawn) [Compound 122] | + (Indicates inhibition greater than . . . 50%) | + (Indicates inhibition greater than . . . 50%) |
| CSC1OC(COCc2ccccc2)C(O)C(OCc2ccccc2)C1NC(=O)CCCNC(=N)N (stereo not drawn) [Compound 124] | + (Indicates inhibition greater than . . . 50%) | + (Indicates inhibition greater than . . . 50%) |
| CSC1OC(COCc2ccc(Cl)cc2)C(O)C(OCc2ccccc2)C1NC(=O)CNC(=N)N (stereo not drawn) [Compound 126] | + (Indicates inhibition greater than . . . 50%) | + (Indicates inhibition greater than . . . 50%) |
| CSC1OC(COCc2ccc(Cl)cc2)C(O)C(OCc2ccccc2)C1NC(=O)CCNC(=N)N (stereo not drawn) [Compound 128] | + (Indicates inhibition greater than . . . 50%) | + (Indicates inhibition greater than . . . 50%) |
| CSC1OC(COCc2ccc(Cl)cc2)C(O)C(OCc2ccccc2)C1NC(=O)CCCN (stereo not drawn) [Compound 129] | + (Indicates inhibition greater than . . . 50%) | + (Indicates inhibition greater than . . . 50%) |
| CSC1OC(COCc2ccc(Cl)cc2)C(O)C(OCc2ccccc2)C1NC(=O)CCCNC(=N)N (stereo not drawn) [Compound 130] | + (Indicates inhibition greater than . . . 50%) | + (Indicates inhibition greater than . . . 50%) |
